pIC50: −log10 of the molar value.

For this assay, the target named is Ribose-phosphate pyrophosphokinase (Escherichia coli) (UniProt P0A717). Put plainly: Inhibitory concentration against Escherichia coli Pyrophosphate Synthetase (PRPP).
Ribose-phosphate pyrophosphokinase (Escherichia coli), sequence (P0A717 whole entry, looked up): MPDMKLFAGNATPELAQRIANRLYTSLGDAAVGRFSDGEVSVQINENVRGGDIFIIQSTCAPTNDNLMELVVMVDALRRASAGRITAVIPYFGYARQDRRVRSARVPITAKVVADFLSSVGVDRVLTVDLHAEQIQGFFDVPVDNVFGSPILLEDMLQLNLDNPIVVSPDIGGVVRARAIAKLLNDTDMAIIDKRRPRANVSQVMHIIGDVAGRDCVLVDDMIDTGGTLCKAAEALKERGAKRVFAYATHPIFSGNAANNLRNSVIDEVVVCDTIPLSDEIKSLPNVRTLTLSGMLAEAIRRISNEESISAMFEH
Take `Nc1ncnc2c1ncn2[C@@H]1O[C@H](COP(=O)(O)O)[C@H](O)[C@@H]1O` [Phosphoric acid mono-[(2R,3R,4S,5R)-5-(6-amino-purin-9-yl)-3,4-dihydroxy-tetrahydro-furan-2-ylmethyl] ester]: the pIC50 (in general, the IC50 on a negative log10 scale, so that one unit is a factor of ten) is 2.29.
The result for `Nc1ncnc2c1ncn2[C@H]1CC[C@@H](CCOP(=O)(O)O)C1` [Phosphoric acid mono-{2-[(1R,3S)-3-(6-amino-purin-9-yl)-cyclopentyl]-ethyl} ester] reads 3.22; that for `Nc1ncnc2c1ncn2[C@H]1CC[C@@H](CC(F)(F)P(=O)(O)O)C1` [{2-[(1R,3S)-3-(6-Amino-purin-9-yl)-cyclopentyl]-1,1-difluoro-ethyl}-phosphonic acid], 3.00.
For the compound `Nc1ncnc2c1ncn2CCOCP(=O)(O)O` [9-[2-phosphonomethoxyethyl]adenine], the pIC50 is 2.49. This pIC50 is 0.51 log units lower than that of the compound before.

These data come from BindingDB's records for doi:10.1016/S0960-894X(00)80413-8 (1992).
